Source: BindingDB's records for doi:10.7270/Q2H993J6 (Pcmd, 2008)
pIC50: −log10 of the molar value. *1 amine or outer side, *2 acyl side, *3 side chain or, on linkers, in order; H or OH if unused. Where a SMILES comes first, the peptide text is derived from it. The star is where a group is joined. Cbz = O=C(OCc1ccccc1)*; CO = O=C([*:1])[*:2]

Molecular target: Coagulation factor XI (Homo sapiens, UniProt P03951)
Test: factor XIa inhibitor concentration-response – biochemical, hits from 1536-well screen, dose response (AID 846)
Conditions: pH 7.4; 23 °C

Sequence of Coagulation factor XI (P03951 19-387 limits assumed): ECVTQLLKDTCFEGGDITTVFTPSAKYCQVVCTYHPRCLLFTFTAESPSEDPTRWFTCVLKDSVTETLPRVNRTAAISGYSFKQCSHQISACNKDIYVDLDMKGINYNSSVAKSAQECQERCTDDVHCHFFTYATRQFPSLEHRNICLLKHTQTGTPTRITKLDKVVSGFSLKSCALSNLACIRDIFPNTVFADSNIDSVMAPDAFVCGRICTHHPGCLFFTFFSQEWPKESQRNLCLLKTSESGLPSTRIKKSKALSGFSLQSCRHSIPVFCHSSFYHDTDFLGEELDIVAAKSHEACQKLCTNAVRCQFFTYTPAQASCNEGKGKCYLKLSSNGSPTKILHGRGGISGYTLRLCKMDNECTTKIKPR
Sequence of Coagulation factor XI (P03951 388-625 limits assumed): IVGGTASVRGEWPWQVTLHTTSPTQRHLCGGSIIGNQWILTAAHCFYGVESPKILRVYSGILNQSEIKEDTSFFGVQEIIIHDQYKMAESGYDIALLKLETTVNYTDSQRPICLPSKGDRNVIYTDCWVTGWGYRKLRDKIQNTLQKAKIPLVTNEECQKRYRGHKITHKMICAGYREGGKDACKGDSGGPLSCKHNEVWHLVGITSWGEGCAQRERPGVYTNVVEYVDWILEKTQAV

## CN(Cc1ccon1)C(=O)CC1C(=O)NCCN1CC1CCCCC1 (stereo not drawn) [2-[1-(cyclohexylmethyl)-3-oxopiperazin-2-yl]-N-(isoxazol-3-ylmethyl)-N-methylacetamide]
  pIC50: < 4.30

## O=C(NNC1=NCCCCC1)Nc1cccc(Cl)c1
  pIC50: < 4.30

## C=CCn1c(Cc2cccs2)nnc1SCC(=O)NCc1ccco1 [SMR000153108]
  pIC50: < 4.30

## CC(C)[C@H](NC(=O)[C@H](CCCNC(=N)N)NC(=O)N[C@@H](Cc1ccccc1)C(=O)O)C(=O)N[C@H](C=O)CCCNC(=N)N [2-[[[[(2S)-5-(diaminomethylideneamino)-1-[[(2S)-1-[[5-(diaminomethylideneamino)-1-oxopentan-2-yl]amino]-3-methyl-1-oxobutan-2-yl]amino]-1-oxopentan-2-yl]amino]-oxomethyl]amino]-3-phenylpropanoic acid] ({Phe-CO}-Arg-Val-Arg-aldehyde)
  pIC50: 5.42

## COc1c(C)cc(C(=O)C2CCCN(S(=O)(=O)c3c(C)noc3C)C2)cc1C (stereo not drawn) [MLS000693702]
  pIC50: < 4.30

## COCC(=O)Nc1ccccc1-c1ccccc1 [N-2-biphenylyl-2-methoxyacetamide]
  pIC50: < 4.30

## Brc1cccc(CN=Nc2nnn[nH]2)c1 [SMR000279292]
  pIC50: < 4.30

## COc1ccc(C=NNC(=O)CCn2cnc3ccccc32)cc1 [MLS000769034]
  pIC50: < 4.30

## Cc1ccc(C(=O)C(=O)c2ccc(C)c(N)c2)cc1N
  pIC50: < 4.30

## Cc1ccc(S(=O)(=O)ON2C(=O)c3ccccc3C2=O)c(C)c1 [MLS000579570]
  pIC50: 5.97

## N#Cc1ccsc1NC(=O)CN(Cc1ccccc1)Cc1ccccc1 [2-[bis(phenylmethyl)amino]-N-(3-cyano-2-thiophenyl)acetamide]
  pIC50: < 4.30

## Cc1ccccc1C(=O)NC1CCSC1=O (stereo not drawn) [MLS000709097]
  pIC50: < 4.30

## O=C1OCC2OC(O)C(O)C(O)C2OC(=O)c2cc(O)c(O)c(O)c2-c2c(O)c(O)c3oc(=O)c4c(c(O)c(O)c5oc(=O)c2c3c54)-c2c1cc(O)c(O)c2O (stereo not drawn) [SMR000445568]
  pIC50: 5.22

## COc1ccc(C=Nn2c(C)cc(C)cc2=O)cc1 [SMR000269659]
  pIC50: < 4.30

## COc1ccc(OC)c(S(=O)(=O)N2CCCC(C)C2)c1 (stereo not drawn) [MLS000035543]
  pIC50: < 4.30

## O=C(Oc1ccc(=O)n(-c2ccccc2)n1)c1ccc(Cl)cc1 [4-chlorobenzoic acid (6-oxo-1-phenyl-3-pyridazinyl) ester]
  pIC50: 5.25

## CCn1nc(CC(=O)O)c2ccccc2c1=O [2-(3-ethyl-4-oxidanylidene-phthalazin-1-yl)ethanoic acid]
  pIC50: < 4.30

## CCc1ccccc1-n1c(O)cc(=O)[nH]c1=O
  pIC50: < 4.30

## COc1cccc(C(=O)OCCN2CCOCC2)c1
  pIC50: < 4.30

## COC(=O)c1[nH]c2cc(OC)ccc2c1NC(=O)CCN1CCCCC1 [MLS000041334]
  pIC50: < 4.30

## O=C(Nc1ccc(Cl)cc1)Nc1ccccc1C(=O)NCc1ccco1 [2-[(4-chlorophenyl)carbamoylamino]-N-(furan-2-ylmethyl)benzamide]
  pIC50: < 4.30

## CCc1cc2c(SCC(=O)N(C)C3CCS(=O)(=O)C3)ncnc2s1 (stereo not drawn) [N-(1,1-dioxothiolan-3-yl)-2-(6-ethylthieno[2,3-d]pyrimidin-4-yl)sulfanyl-N-methylacetamide]
  pIC50: < 4.30

## CC1(C)C2CCC(C2)C1(C)/N=C1\OC(CCl)CS1 (stereo not drawn) [MLS001012164]
  pIC50: < 4.30

## CCSc1nnc(NC(=O)[C@H](C)N2C(=O)C3CC=CCC3C2=O)s1 (stereo partly drawn) [(2S)-2-(1,3-dioxo-3a,4,7,7a-tetrahydroisoindol-2-yl)-N-[5-(ethylthio)-1,3,4-thiadiazol-2-yl]propanamide]
  pIC50: < 4.30

## CCOC(=O)C(=O)N(Nc1ccc(C)cc1)c1ccc(C)cc1
  pIC50: < 4.30

## CCc1ccc(NC(=O)CCn2cccc2)cc1 [SMR000130982]
  pIC50: < 4.30

## O=S(=O)([N-]c1nc2ccccc2nc1-[n+]1ccn(Cc2ccccc2)c1)c1ccc(Cl)cc1 [(4-chlorophenyl)sulfonyl-[3-[3-(phenylmethyl)imidazol-3-ium-1-yl]quinoxalin-2-yl]azanide]
  pIC50: < 4.30

## Cc1cc(/C=C2\SC(=S)N(C)C2=O)c(C)n1-c1cccc(O)c1 [SMR000415846]
  pIC50: < 4.30

## O=C(Nc1ccc2c(c1)oc1ccccc12)N1CCOCC1 [Morpholine-4-carboxylic acid dibenzofuran-3-ylamide]
  pIC50: < 4.30

## COC(=O)c1cccc(NC(=O)CSc2nnc[nH]2)c1 [methyl 3-{[(4H-1,2,4-triazol-3-ylthio)acetyl]amino}benzoate]
  pIC50: < 4.30

## COc1cc(C=NNC(=O)c2ccc(CN3C(=O)c4cccc5cccc3c45)cc2)cc(OC)c1O [MLS001033788]
  pIC50: < 4.30

## CCc1ccc[n+](-c2[n-]c(=O)sc2C=NNC(N)=O)c1
  pIC50: < 4.30

## COc1ccccc1NS(=O)(=O)c1ccc(O)c(C(=O)OCC(=O)c2ccc(Cl)cc2Cl)c1 [SMR000369457]
  pIC50: < 4.30

## O=C(Nc1ccc(Cl)cc1)Nc1nc(-c2ccccc2O)cs1 [1-(4-chlorophenyl)-3-[4-(2-hydroxyphenyl)-1,3-thiazol-2-yl]urea]
  pIC50: < 4.30

## Cn1cccc1/C=C1\C(=O)NC(=O)N(Cc2ccccc2Cl)C1=O [(5E)-1-[(2-chlorophenyl)methyl]-5-[(1-methylpyrrol-2-yl)methylidene]-1,3-diazinane-2,4,6-trione]
  pIC50: < 4.30

## CCOc1cc(CO)ccc1OCC(=O)N1CCCCC1 [2-[2-ethoxy-4-(hydroxymethyl)phenoxy]-1-(1-piperidinyl)ethanone]
  pIC50: < 4.30

## CN(Cc1ccccc1)c1nc2c(c(=O)[nH]c(=O)n2C)n1CCCSc1ncccn1 [3-methyl-8-[methyl-(phenylmethyl)amino]-7-(3-pyrimidin-2-ylsulfanylpropyl)purine-2,6-dione]
  pIC50: < 4.30

## Fc1ccc(Nc2ccc3ccccc3n2)c(F)c1 [MLS001004714]
  pIC50: < 4.30

## O=C(COC(=O)c1cc(=O)c2ccccc2o1)NC1CCCCC1 [[2-(cyclohexylamino)-2-oxidanylidene-ethyl] 4-oxidanylidenechromene-2-carboxylate]
  pIC50: < 4.30

## O=C(Nc1nc(-c2ccc(Cl)s2)cs1)c1cccs1 [SMR000065041]
  pIC50: 6.44

## COC(=O)c1c(NC(=O)COC(=O)Cn2cnc3ccccc32)sc(C)c1C [SMR000062436]
  pIC50: < 4.30

## CC(C=NNC(=O)c1cc(-c2cccn2C)n[nH]1)=Cc1ccccc1
  pIC50: < 4.30

## COc1cc(C(=O)NCC(=O)OCn2nnc3ccccc3c2=O)cc(OC)c1OC [MLS001007360]
  pIC50: < 4.30

## CC(C)C(NC(=O)C(Cc1ccccc1)NC(=O)OCc1ccccc1)C(=O)O (stereo not drawn) [3-methyl-2-[[1-oxo-3-phenyl-2-(phenylmethoxycarbonylamino)propyl]amino]butanoic acid] (Cbz-Phe-Val-OH; configuration not given here)
  pIC50: < 4.30

## O=C(Oc1cncc(Cl)c1)c1ccco1
  pIC50: 6.13

## O=C(NN=Cc1ccccc1C(=O)O)c1ccccc1Br [MLS000774668]
  pIC50: < 4.30

## O=C1OC(Nc2ccc(F)c([N+](=O)[O-])c2)c2ccccc21 (stereo not drawn) [SMR000434389]
  pIC50: < 4.30

## CCOC(=O)c1sc2ncn(N=Cc3ccc(O)cc3)c(=O)c2c1C [SMR000371630]
  pIC50: < 4.30

## CCc1nnc(NC(=O)c2ccc(NC(=O)C(C)C)cc2)s1 [SMR000290444]
  pIC50: < 4.30

## COc1cc(C(=O)OCC(C)=O)ccc1OCc1c(C)noc1C [SMR000377658]
  pIC50: < 4.30

## CC(C)(C)C(=O)CSc1ncnc2c1cnn2-c1ccccc1
  pIC50: < 4.30

## CCOC(=O)Cc1csc(NC(=O)CC(C)(C)CC(=O)O)n1 [5-[[4-(2-ethoxy-2-oxidanylidene-ethyl)-1,3-thiazol-2-yl]amino]-3,3-dimethyl-5-oxidanylidene-pentanoic acid]
  pIC50: < 4.30

## Cn1cccc1C(=O)Nc1nc(-c2ccccn2)cs1 [SMR000064459]
  pIC50: 4.67

## Cc1onc(-c2ccccc2)c1C(=O)N(Cc1ccco1)Cc1cccs1 [MLS000771400]
  pIC50: < 4.30

## CC(=O)Nc1ccc(S(=O)(=O)NNC(=O)COc2ccc(Cl)cc2Cl)cc1 [MLS000777409]
  pIC50: < 4.30

## CSc1nc2cc3c(cc2n1C(=O)c1ccc(C)cc1)OCCO3 [MLS000544330]
  pIC50: 5.65

## C=C(C)CNC(=S)NN=C(C)c1cccc(NC(C)=O)c1 [SMR000384154]
  pIC50: < 4.30

## O=C(NN=C1CCCC1)c1ccccc1OCc1ccc(Cl)cc1
  pIC50: < 4.30

## N#CCCC1CCCC=C1N(Cc1ccccc1)C(=O)C(Cl)Cl (stereo not drawn) [2,2-bis(chloranyl)-N-[6-(2-cyanoethyl)cyclohexen-1-yl]-N-(phenylmethyl)ethanamide]
  pIC50: < 4.30

## Cc1cccc(OCC(O)CN2CC3(C)CC2CC(C)(C)C3)c1 (stereo not drawn) [SMR000249047]
  pIC50: < 4.30

## CONC(=N)c1nonc1N [MLS001049218]
  pIC50: < 4.30

## [O-][S+](NC1CCCCC1)C12CC3CC(CC(C3)C1)C2 (stereo not drawn)
  pIC50: < 4.30

## Cc1ccc2c(CN3CCN(Cc4ccc5c(c4)OCO5)CC3)cc(=O)oc2c1C [4-[[4-(1,3-benzodioxol-5-ylmethyl)-1-piperazinyl]methyl]-7,8-dimethyl-1-benzopyran-2-one]
  pIC50: < 4.30

## CN1CCN(S(=O)(=O)Cc2ccc(Cl)cc2)CC1 [SMR000456888]
  pIC50: < 4.30

## C=C(C)CNC(=S)Nc1cccc(N)n1
  pIC50: < 4.30

## CC(=O)c1ccc(NC(S)=Nc2cccc3cnccc23)cc1 [1-(4-acetylphenyl)-3-(5-isoquinolinyl)thiourea]
  pIC50: < 4.30

## CCc1cccc(NC(=O)Cc2ccc([N+](=O)[O-])cc2)c1
  pIC50: < 4.30

## CC(C)c1csc(CN2CCCC(CCC(=O)NCc3ccccc3F)C2)n1 (stereo not drawn) [N-[(2-fluorophenyl)methyl]-3-[1-[(4-propan-2-yl-1,3-thiazol-2-yl)methyl]piperidin-3-yl]propanamide]
  pIC50: < 4.30

## O=C1NN(c2ccccc2)C(=O)/C1=C\c1cccc(OC(=O)c2cccs2)c1 [MLS000534153]
  pIC50: < 4.30

## Cc1cccc(CN2CCN(CC(=O)N3CCCC3)C2=O)c1 [SMR000130591]
  pIC50: < 4.30

## Cc1ccc(CN2C(=O)C(=NNC(=S)Nc3ccccc3F)c3cc(S(=O)(=O)N4CCOCC4)ccc32)cc1 [SMR000314855]
  pIC50: < 4.30

## COc1cc(C(=O)NC(=S)N(C)Cc2ccccc2)cc(OC)c1OC [N-[benzyl(methyl)carbamothioyl]-3,4,5-trimethoxybenzamide]
  pIC50: < 4.30

## COc1ccc(CSc2nc(C)cc(C)c2S(C)(=O)=O)cc1 [2-[(4-methoxybenzyl)sulfanyl]-4,6-dimethyl-3-pyridinyl methyl sulfone]
  pIC50: < 4.30
